Measured values published in patent US12466810B2, “N-(5-(6-ethoxypyrazin-2-yl)pyridin-2-yl)-4-(2-(methylsulfonamido)pyrimidin-4-yl) tetrahydro-2H-pyran-4-carboxamide derivatives and related compounds as human CTPS1 inhibitors for the treatment of proliferative diseases” (Step Pharma S.A.S., priority 2019, dated 2025).

Columns and labels:
human CTPS1 = target: T1, human CTPS1 (Homo sapiens, UniProt P17812); assay: Human CTPS1 enzyme inhibition (ADP-Glo Max assay); assay type: biochemical; details: 25° C., read-out: Human CTPS1 Enzyme Inhibition IC50, grouped by potency range
T1 construct: FLAG (GG linker + DYKDDDDK); His8 (GG linker + HHHHHHHH); purchased Proteros biostructures GmbH
T1 sequence (P17812 1-591): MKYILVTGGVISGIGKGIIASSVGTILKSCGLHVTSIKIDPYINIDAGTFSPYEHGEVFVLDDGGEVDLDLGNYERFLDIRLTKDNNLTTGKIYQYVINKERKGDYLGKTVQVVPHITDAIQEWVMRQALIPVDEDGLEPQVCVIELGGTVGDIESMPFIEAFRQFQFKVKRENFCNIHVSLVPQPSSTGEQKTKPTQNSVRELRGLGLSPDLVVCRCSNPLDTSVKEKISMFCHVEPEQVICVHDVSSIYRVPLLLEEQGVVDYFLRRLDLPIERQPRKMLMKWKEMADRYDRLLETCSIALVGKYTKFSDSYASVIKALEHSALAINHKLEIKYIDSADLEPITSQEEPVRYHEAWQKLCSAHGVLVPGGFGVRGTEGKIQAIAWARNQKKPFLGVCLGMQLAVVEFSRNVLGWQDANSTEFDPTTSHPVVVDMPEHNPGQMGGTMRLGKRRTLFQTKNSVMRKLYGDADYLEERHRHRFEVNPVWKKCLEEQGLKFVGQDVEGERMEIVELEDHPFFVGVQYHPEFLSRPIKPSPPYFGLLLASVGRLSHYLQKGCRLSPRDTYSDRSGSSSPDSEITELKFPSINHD
Experimental: The enzyme inhibitory activities of compounds invented against the target of interest were determined using the ADP-Glo™ Max assay (Promega, UK). Assays for human CTPS1 were performed in 1× assay buffer containing 50 mM Tris, 10 mM MgCl2, 0.01% Tween-20, pH to 8.0 accordingly. Finally, immediately before use, L-cysteine was added to the 1× assay buffer to a final concentration of 2 mM. All reagents are from Sigma-Aldrich unless specified otherwise.
Human full length active C-terminal FLAG-Hiss-tag CTPS1 (UniProtKB—P17812, CTPS1[1-591]-[…] (CTPS1[1-591]-SEQ ID NO: 1)) was obtained from Proteros biostructures GmbH.
3× human CTPS1 protein was prepared in 1× assay buffer to the final working protein concentration required for the reaction. A 2 uL volume per well of 3× human CTPS1 protein was mixed with 2 uL per well of 3× test compound (compound prepared in 1× assay buffer to an appropriate final 3× compound concentration respective to the concentration response curve designed for the compounds under test) for 10 minutes at 25° C. The enzymatic reaction was then initiated by addition of a 2 uL per well volume of a pre-mixed substrate mix (UltraPure ATP from ADP-GIo™ Max kit (0.31 mM), GTP (0.034 mM), UTP (0.48 mM) and L-glutamine (0.186 mM)) and the mixture was incubated for an appropriate amount of time within the determined linear phase of the reaction at 25° C. under sealed plate conditions with constant agitation at 500 revolutions per minute (rpm). ADP-GIo™ Max reagent was added for 60 minutes (6 μL per well) and subsequently ADP-GIo™ Max development reagent was added for 60 minutes (12 uL per well) prior to signal detection in a microplate reader (EnVision® Multilabel Reader, Perkin Elmer). Following each reagent addition over the course of the assay, assay plates were pulse centrifuged for 30 seconds at 500 rpm.
In all cases, the enzyme converts ATP to ADP and the ADP-Glo™ Max reagent subsequently depletes any remaining endogenous ATP in the reaction system. The ADP-Glo™ Max detection reagent converts the ADP that has been enzymatically produced back into ATP and using ATP as a substrate together with luciferin for the enzyme luciferase, light is generated which produces a detectable luminescence. […] The percentage inhibition produced by each concentration of compound was calculated using the equation shown below: […]
(§1) Percentage inhibition was then plotted against compound concentration, and the 50% inhibitory concentration (IC50) was determined from the resultant concentration-response curve.

Human CTPS1 Versus CTPS2 = assay: RapidFire/MS-based enzyme selectivity assay, human CTPS1 versus CTPS2; assay type: biochemical; details: RapidFire/MS IC50s
Experimental: Human CTPS1 Versus CTPS2 Selectivity Assessment by RapidFire/MS Analysis.
The enzyme inhibitory activities against each target isoform of interest may be determined for the compounds of the invention using an optimised RapidFire high-throughput mass spectrometry (RF/MS) assay format. RF/MS assays for both human CTPS1 and CTPS2 may be performed in assay buffer consisting of 50 mM HEPES (Merck), 20 mM MgCl2, 5 mM KCl, 1 mM DTT, 0.01% Tween-20, pH to 8.0 accordingly. Human full-length active C-terminal FLAG-His-tag CTPS1 (UniProtKB—P17812, CTPS1[1-591]-[…] (CTPS1[1-591]-SEQ ID NO: 1)) may be obtained from Proteros biostructures GmbH. Human full length active C-terminal FLAG-His-Avi tagged CTPS2 (UniProtKB—Q9NRF8, CTPS2 [1-586]—[…] (CTPS2 [1-586]-SEQ ID NO: 2)) may be obtained from Harker Bio.
Human CTPS (1 or 2) protein may be prepared in 1× assay buffer to the final working protein concentration required for the reaction. A 2 uL volume per well of 2×CTPS (1 or 2) protein may be mixed with 40 nL of compound using acoustic (ECHO) delivery and incubated for 10 minutes at 25° C. Each isoform enzymatic reaction may be subsequently initiated by addition of 2 uL per well of a 2× substrate mix in assay buffer. For hCTPS1: ATP (0.3 mM), UTP (0.2 mM), GTP (0.07 mM) and L-glutamine (0.1 mM). For hCTPS2: ATP (0.1 mM), UTP (0.04 mM), GTP (0.03 mM) and L-glutamine (0.1 mM). Each mixture may be incubated for an appropriate amount of time per isoform within the determined linear phase of the reaction at 25° C. A 60 uL volume of stop solution (1% formic acid with 0.5 uM ^13C9-^15N3-CTP in H2O) may be added and the plate immediately heat-sealed and centrifuged for 10 minutes at 4,000 rpm. Following centrifugation, plates may be loaded onto the Agilent RapidFire microfluidic solid phase extraction system coupled to an API4000 triple quadrupole mass spectrometer (RF/MS) for analysis.
In all cases, the enzyme converts UTP to CTP. Highly specific and sensitive multiple reaction monitoring (MRM) MS methods may be optimised for the detection of the enzymatic reaction product, CTP, and the stable isotope labelled product standard ^13C-^15N-CTP. Readout for data analysis may be calculated as the ratio between the peak area of the product CTP and the internal standard […]. For data reporting, the following equation may be used: […]
For each screening plate, the means of the negative (DMSO) and positive control values were used for the calculation of the respective assay window (S/B) and Z′ values. The median of the respective control values was used for calculation of percent inhibition according to the following equation: […]
as §1
Fold selectivity between CTPS1 and CTPS2 was subsequently calculated according to the following equation: […]

IC50 (human CTPS1)	Fold selectivity between CTPS1 and CTPS2 (CTPS1) (Human CTPS1 Versus CTPS2)	SMILES
≤ 100 nM	+++ (>60 fold (+++))	CCOc1cncc(-c2ccc(NC(=O)C3(c4ccnc(NS(=O)(=O)C5CC5)n4)CCN(C(=O)NC(C)C)CC3)nc2)n1 [P233, 4-(2-(Cyclopropanesulfonamido)pyrimidin-4-yl)-N4-(5-(6-ethoxypyrazin-2-yl)pyridin-2-yl)-N1-isopropylpiperidine-1,4-dicarboxamide]
≤ 100 nM	+++ (>60 fold (+++))	CCOc1cncc(-c2ccc(NC(=O)C3(c4ccnc(NS(=O)(=O)C5CC5)n4)CCN(C(C)=O)CC3)nc2)n1 [P234, 1-Acetyl-4-(2-(cyclopropanesulfonamido)pyrimidin-4-yl)-N-(5-(6-ethoxypyrazin-2-yl)pyridin-2-yl)piperidine-4-carboxamide]
≤ 100 nM	+++ (>60 fold (+++))	CCOc1cncc(-c2ccc(NC(=O)C3(c4ccnc(NS(C)(=O)=O)n4)CCOCC3)nc2)n1 [P236, N-(5-(6-ethoxypyrazin-2-yl)pyridin-2-yl)-4-(2-(methylsulfonamido)pyrimidin-4-yl)tetrahydro-2H-pyran-4-carboxamide]
≤ 100 nM	+++ (>60 fold (+++))	CCOc1cncc(-c2ccc(NC(=O)C3(c4ccnc(NS(=O)(=O)C5CC5)n4)CCCCC3)nc2)n1 [P237, 1-(2-(cyclopropanesulfonamido)pyrimidin-4-yl)-N-(5-(6-ethoxypyrazin-2-yl)pyridin-2-yl)cyclohexane-1-carboxamide]
≤ 100 nM	+++ (>60 fold (+++))	CCOc1cncc(-c2ccc(NC(=O)C3(c4ccnc(NS(C)(=O)=O)n4)CCCCC3)nc2)n1 [P238, N-(5-(6-ethoxypyrazin-2-yl)pyridin-2-yl)-1-(2-(methylsulfonamido)pyrimidin-4-yl)cyclohexane-1-carboxamide]
≤ 100 nM	+++ (>60 fold (+++))	CCOc1cncc(-c2ccc(NC(=O)C3(c4cncc(NS(=O)(=O)C5CC5)n4)CCCCC3)nc2)n1 [P239, 1-(6-(cyclopropanesulfonamido)pyrazin-2-yl)-N-(5-(6-ethoxypyrazin-2-yl)pyridin-2-yl)cyclohexane-1-carboxamide]
≤ 100 nM	+++ (>60 fold (+++))	CCOc1cncc(-c2ccc(NC(=O)C3(c4ccnc(NS(=O)(=O)C5CC5)n4)CCC3)nc2)n1 [P241, 1-(2-(cyclopropanesulfonamido)pyrimidin-4-yl)-N-(5-(6-ethoxypyrazin-2-yl)pyridin-2-yl)cyclobutane-1-carboxamide]
≤ 100 nM	–	CCOc1cncc(-c2ccc(NC(=O)C3(c4ccnc(NS(=O)(=O)C5CC5)n4)CCS(=O)(=O)CC3)nc2)n1 [P259, 4-(2-(cyclopropanesulfonamido)pyrimidin-4-yl)-N-(5-(6-ethoxypyrazin-2-yl)pyridin-2-yl)tetrahydro-2H-thiopyran-4-carboxamide 1,1-dioxide]
100 to 1000 nM	–	CCOc1cncc(-c2ccc(NC(=O)C3(c4ccnc(NS(=O)(=O)CC5CC5)n4)CCOCC3)nc2)n1 [P263, 4-(2-(cyclopropylmethylsulfonamido)pyrimidin-4-yl)-N-(5-(6-ethoxypyrazin-2-yl)pyridin-2-yl)tetrahydro-2H-pyran-4-carboxamide]

Second part, the compound before the results:

SMILES	IC50 (human CTPS1)	Fold selectivity between CTPS1 and CTPS2 (CTPS1) (Human CTPS1 Versus CTPS2)
CCOc1cncc(-c2ccc(NC(=O)C3(c4ccnc(NS(=O)(=O)C5CC5)n4)CCN(C)CC3)nc2)n1 [P231, 4-(2-(Cyclopropanesulfonamido)pyrimidin-4-yl)-N-(5-(6-ethoxypyrazin-2-yl)pyridin-2-yl)-1-methylpiperidine-4-carboxamide]	100 to 1000 nM	+++ (>60 fold (+++))
CCOc1cncc(-c2ccc(NC(=O)C3(c4ccnc(NS(=O)(=O)C5CC5)n4)CCN(C(C)C)CC3)nc2)n1 [P232, 4-(2-(Cyclopropanesulfonamido)pyrimidin-4-yl)-N-(5-(6-ethoxypyrazin-2-yl)pyridin-2-yl)-1-isopropylpiperidine-4-carboxamide]	100 to 1000 nM	+++ (>60 fold (+++))
CCOc1cncc(-c2ccc(NC(=O)C3(c4ccnc(NS(=O)(=O)C5CC5)n4)CCOCC3)c(C)c2)n1 [P240, 4-(2-(cyclopropanesulfonamido)pyrimidin-4-yl)-N-(4-(6-ethoxypyrazin-2-yl)-2-methylphenyl)tetrahydro-2H-pyran-4-carboxamide]	≤ 100 nM	+ (2-30 fold (+))
CCOc1cncc(-c2ccc(NC(=O)C3(c4nccc(NS(=O)(=O)C5CC5)n4)CCOCC3)nc2)n1 [P243, 4-(4-(cyclopropanesulfonamido)pyrimidin-2-yl)-N-(5-(6-ethoxypyrazin-2-yl)pyridin-2-yl)tetrahydro-2H-pyran-4-carboxamide]	≤ 100 nM	+++ (>60 fold (+++))
CCOc1cncc(-c2ccc(C(=O)NC3(c4ccnc(NS(=O)(=O)C5CC5)n4)CC3)nc2)n1 [P257, N-(1-(2-(cyclopropanesulfonamido)pyrimidin-4-yl)cyclopropyl)-5-(6-ethoxypyrazin-2-yl)picolinamide]	100 to 1000 nM	–
CCOc1cncc(-c2ccc(NC(=O)C3(c4ccnc(NS(=O)(=O)CC)n4)CCOCC3)nc2)n1 [P262, N-(5-(6-ethoxypyrazin-2-yl)pyridin-2-yl)-4-(2-(ethylsulfonamido)pyrimidin-4-yl)tetrahydro-2H-pyran-4-carboxamide]	≤ 100 nM	–
